Test results: patent publication US12655116B2, “Substituted isophthalic acid diamides” (Bayer Aktiengesellschaft, priority 2020, dated 2026)

Key:
[1] = system: VIOTR; experiment: Post-emergence herbicidal action against VIOTR; assay type: in vivo, Viola tricolor
In short: (§1)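 Greenhouse pot plants in sandy loam were sprayed at the one-leaf stage, 2 to 3 weeks after sowing, with WP or EC formulations as aqueous suspension or emulsion (600 to 800 l/ha water, 0.2% wetting agent). About 3 weeks later, damage was scored visually against untreated controls as % action (100% = dead, 0% = like control).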

[2] = system: ABUTH; experiment: Post-emergence herbicidal action against ABUTH; assay type: in vivo, Abutilon theophrasti; settings: visual assessment about 3 weeks after treatment vs untreated controls
In short: as §1

[3] = system: SETVI; experiment: Post-emergence herbicidal action against SETVI; assay type: in vivo, Setaria viridis
In short: as §1

[4] = system: POLCO; experiment: Pre-emergence herbicidal action against POLCO; assay type: in vivo, Polygonum convolvulus
In short: (§2)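 Visual rating at 3 weeks vs untreated pots; 0–100% scale, 100% = plants died. Treatment: aqueous WP/EC spray onto covering soil, 600–800 l/ha, 0.2% wetter, seeds in sandy loam.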

[5] = system: AMARE; experiment: Pre-emergence herbicidal action against AMARE; assay type: in vivo, Amaranthus retroflexus
In short: as §2

[6] = system: DIGSA; experiment: Post-emergence herbicidal action against DIGSA; assay type: in vivo, Digitaria sanguinalis; settings: Digitaria sanguinalis, 504 h
In short: as §1

[7] = system: VERPE; experiment: Pre-emergence herbicidal action against VERPE; assay type: in vivo, Veronica persica; settings: Veronica persica, 504 h, dosage 80 g/ha
In short: as §2

[8] = system: ABUTH; experiment: Pre-emergence herbicidal action against ABUTH; assay type: in vivo, Abutilon theophrasti
In short: as §2

[9] = system: ECHCG; experiment: Post-emergence herbicidal action against ECHCG; assay type: in vivo, Echinochloa crus-galli
In short: as §1

[10] = system: PHBPU; experiment: Pre-emergence herbicidal action against PHBPU; assay type: in vivo, Pharbitis purpurea
In short: as §2

[11] = system: ECHCG; experiment: Pre-emergence herbicidal action against ECHCG; assay type: in vivo, Echinochloa crus-galli; settings: 80 g/ha
In short: as §2

[12] = system: SETVI; experiment: Pre-emergence herbicidal action against SETVI; assay type: in vivo, Setaria viridis
In short: as §2

[13] = system: ALOMY; experiment: Pre-emergence herbicidal action against ALOMY; assay type: in vivo, Alopecurus myosuroides
In short: as §2

[14] = system: MATIN; experiment: Pre-emergence herbicidal action against MATIN; assay type: in vivo, Matricaria inodora
In short: as §2

[15] = system: AMARE; experiment: Post-emergence herbicidal action against AMARE; assay type: in vivo, Amaranthus retroflexus; settings: 20 g/ha, visual assessment about 3 weeks after treatment, 100% = plants have died, 0% = like control plants
In short: as §1

[16] = system: DIGSA; experiment: Pre-emergence herbicidal action against DIGSA; assay type: in vivo, Digitaria sanguinalis; settings: Digitaria sanguinalis, 504 h, dosage 80 g/ha
In short: as §2

[17] = system: PHBPU; experiment: Post-emergence herbicidal action against PHBPU; assay type: in vivo, Pharbitis purpurea; settings: dosage 20 g/ha
In short: as §1

[18] = system: AVEFA; experiment: Pre-emergence herbicidal action against AVEFA; assay type: in vivo, Avena fatua; settings: 80 g/ha, pre-emergence
In short: as §2

[19] = system: VERPE; experiment: Post-emergence herbicidal action against VERPE; assay type: in vivo, Veronica persica; settings: 20 g/ha
In short: as §1

[20] = system: MATIN; experiment: Post-emergence herbicidal action against MATIN; assay type: in vivo, Matricaria inodora; settings: dosage 20 g/ha
In short: as §1

[21] = system: VIOTR; experiment: Pre-emergence herbicidal action against VIOTR; assay type: in vivo, Viola tricolor
In short: as §2

[22] = system: ALOMY; experiment: Post-emergence herbicidal action against ALOMY; assay type: in vivo, Alopecurus myosuroides; settings: dosage 20 g/ha, visual assessment about 3 weeks after treatment vs untreated controls
In short: as §1

[23] = Setaria viridis, 504 h, dosage 20 g/ha
[24] = 80 g/ha, scored visually after 3 weeks vs untreated controls (100% = plants have died, 0% = like control plants)

Compound: CNC(=O)c1c(C(F)(F)F)ccc(C(=O)Nc2nnnn2C)c1OC [Example 1-56]
- pest or weed control at 5 g/ha ([1]; Viola tricolor, 504 h, 5 g/ha): 100%
- pest or weed control at 20 g/ha ([1]; Viola tricolor, 504 h, 20 g/ha): 100%
- pest or weed control at 5 g/ha ([2]; Abutilon theophrasti, 504 h, dosage 5 g/ha): 80%
- pest or weed control at 20 g/ha ([2]; Abutilon theophrasti, 504 h, dosage 20 g/ha): 100%
- pest or weed control at 5 g/ha ([3]; Setaria viridis, 504 h, dosage 5 g/ha): 100%
- pest or weed control at 20 g/ha [3, 23]: 100%
- pest or weed control at 80 g/ha ([4]; Fallopia convolvulus, 504 h, dosage 80 g/ha): 90%
- pest or weed control at 20 g/ha ([5]; Amaranthus retroflexus, 504 h, 20 g/ha, scored visually after 3 weeks vs untreated controls, 100% = plants have died, 0% = like control plants): 100%
- pest or weed control at 80 g/ha ([5]; Amaranthus retroflexus, 504 h, 80 g/ha, scored visually after 3 weeks vs untreated controls, 100% = plants have died, 0% = like control plants): 100%
- pest or weed control at 5 g/ha ([6]; 5 g/ha): 90%
- pest or weed control at 20 g/ha ([6]; 20 g/ha): 100%
- pest or weed control at 80 g/ha [7]: 90%
- pest or weed control at 80 g/ha ([8]; Abutilon theophrasti, 504 h, 80 g/ha, scored visually after 3 weeks vs untreated controls (100% = plants have died, 0% = like control plants)): 90%
- pest or weed control at 5 g/ha ([9]; Echinochloa crus-galli, 504 h, dosage 5 g/ha): 80%
- pest or weed control at 20 g/ha ([9]; Echinochloa crus-galli, 504 h, dosage 20 g/ha): 90%
- pest or weed control at 20 g/ha ([10]; Ipomoea purpurea, 504 h, dosage 20 g/ha): 80%
- pest or weed control at 80 g/ha ([10]; Ipomoea purpurea, 504 h, dosage 80 g/ha): 80%
- pest or weed control at 80 g/ha ([11]; Echinochloa crus-galli, 504 h): 90%
- pest or weed control at 20 g/ha [12, 23]: 90%
- pest or weed control at 80 g/ha ([12]; Setaria viridis, 504 h, dosage 80 g/ha): 100%
- pest or weed control at 80 g/ha ([13]; Alopecurus myosuroides, 504 h, 80 g/ha, pre-emergence, scored visually after 3 weeks vs untreated controls (100% = plants have died, 0% = like control plants)): 90%
- pest or weed control at 20 g/ha ([14]; Tripleurospermum inodorum, 504 h, dosage 20 g/ha): 90%
- pest or weed control at 80 g/ha ([14]; Tripleurospermum inodorum, 504 h, dosage 80 g/ha): 90%
- pest or weed control at 20 g/ha ([15]; Amaranthus retroflexus, 504 h): 100%
- pest or weed control at 80 g/ha [16]: 80%
- pest or weed control at 20 g/ha ([17]; Ipomoea purpurea, 504 h): 80%
- pest or weed control at 80 g/ha ([18]; Avena fatua, 504 h): 80%
- pest or weed control at 20 g/ha ([19]; Veronica persica, 504 h): 90%
- pest or weed control at 20 g/ha ([20]; Tripleurospermum inodorum, 504 h): 90%
- pest or weed control at 20 g/ha ([21]; Viola tricolor, 504 h, dosage 20 g/ha): 100%
- pest or weed control at 80 g/ha ([21]; Viola tricolor, 504 h, dosage 80 g/ha): 100%

Compound: CCc1c(C(=O)Nc2nnnn2C)ccc(C(F)(F)F)c1C(=O)NCC(F)F [Example 1-276]
- Post-emergence action against ALOMY in % [22]: 80%
- Post-emergence action against VIOTR in % ([1]; 20 g/ha): 80%
- Post-emergence action against ABUTH in % ([2]; dosage 5 g/ha): 80%
- Post-emergence action against ABUTH in % ([2]; dosage 20 g/ha): 80%
- Post-emergence action against SETVI in % ([3]; dosage 5 g/ha): 80%
- Post-emergence action against SETVI in % ([3]; dosage 20 g/ha): 80%
- Pre-emergence action against POLCO in % ([4]; dosage 20 g/ha): 80%
- Pre-emergence action against POLCO in % ([4]; dosage 80 g/ha): 90%
- Pre-emergence action against AMARE in % ([5]; 20 g/ha, scored visually after 3 weeks vs untreated controls, 100% = plants have died, 0% = like control plants): 90%
- Pre-emergence action against AMARE in % [5, 24]: 100%
- Pre-emergence action against ABUTH (herbicidal activity) [8, 24]: 100%
- Pre-emergence action against ABUTH (herbicidal activity in percent) ([8]; dosage 20 g/ha, scored visually after 3 weeks vs untreated controls, 100% = plants have died, 0% = like control plants): 100%
- Post-emergence action against ECHCG in % ([9]; dosage 20 g/ha): 80%
- Pre-emergence action against PHBPU in % ([10]; dosage 80 g/ha): 90%
- Pre-emergence action against ECHCG in % [11]: 100%
- Pre-emergence action against SETVI in % ([12]; dosage 80 g/ha): 100%
- Pre-emergence action against ALOMY ([13]; 20 g/ha, scored visually after 3 weeks, 100% = plants have died, 0% = like control plants): 90%
- Pre-emergence action against ALOMY (herbicidal activity) ([13]; 80 g/ha, pre-emergence, scored visually after 3 weeks vs untreated controls (100% = plants have died, 0% = like control plants)): 100%
- Pre-emergence action against MATIN in % ([14]; dosage 20 g/ha): 90%
- Pre-emergence action against MATIN in % ([14]; dosage 80 g/ha): 100%
- Post-emergence action at 20 g/ha against AMARE in % [15]: 100%
- Post-emergence action against PHBPU in % [17]: 90%
- Pre-emergence action against AVEFA in % [18]: 90%
- Post-emergence action against VERPE in % [19]: 80%
- Post-emergence action against MATIN in % [20]: 80%
- Pre-emergence action against VIOTR in % ([21]; dosage 20 g/ha): 80%
- Pre-emergence action against VIOTR in % ([21]; dosage 80 g/ha): 100%
